“Also recorded” adds a separate entry of the source.
What was measured:
[1] = system: rabbit gastric lipase followed by porcine pancreatic lipase; experiment: Sequential in vitro digestion SGF (RGL) followed by SIF (PPL), pH-stat
[2] = target: T1, porcine pancreatic lipase (from pancreatin) (Sus scrofa, UniProt P00591)
T1 sequence (P00591 1-450): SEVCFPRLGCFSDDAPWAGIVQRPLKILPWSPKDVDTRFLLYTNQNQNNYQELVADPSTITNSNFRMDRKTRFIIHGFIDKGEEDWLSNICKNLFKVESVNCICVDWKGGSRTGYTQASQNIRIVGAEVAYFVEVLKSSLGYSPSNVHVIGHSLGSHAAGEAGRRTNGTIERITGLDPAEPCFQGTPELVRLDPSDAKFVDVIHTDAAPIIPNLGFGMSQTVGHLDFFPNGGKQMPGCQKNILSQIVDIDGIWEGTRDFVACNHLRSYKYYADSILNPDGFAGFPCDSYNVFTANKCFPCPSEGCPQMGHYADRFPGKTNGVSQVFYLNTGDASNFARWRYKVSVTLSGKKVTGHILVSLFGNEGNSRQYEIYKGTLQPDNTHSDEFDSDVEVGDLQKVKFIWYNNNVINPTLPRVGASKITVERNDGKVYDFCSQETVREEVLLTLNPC
T1 sequence (P02703 23-112 partner): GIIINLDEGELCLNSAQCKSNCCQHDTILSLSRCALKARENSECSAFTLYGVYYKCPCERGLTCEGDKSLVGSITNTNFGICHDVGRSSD

- Initial lipolysis rate in SIF during SGF-SIF digestion ([1]; after 90 min SGF with rabbit gastric lipase, emulsion with 200 mg fat): 44.1 ± 8.8 µmol/min
- Lipolysis by gastric lipase ([1]; indicated by decreased total fatty acid release in SIF after RGL pre-exposure): ~60%
- Initial rate of lipolysis ([2]; SIF alone, emulsion with 200 mg fat, pH 6.8, 37° C.): 223 ± 59 µmol/min
- Overall extent of lipid digestion ([2]; back titration to pH 11.5, after SIF and SGF-SIF (FIG. 2)): 101.5±0.9%
SMILES: CCCC(=O)OCC(COC(=O)CCC)OC(=O)CCC [tributyrin]
- Hydrolysis in the stomach (gastric compartment of the model) ([1]; in words): considerable digestion; also recorded: extensive hydrolysis
